The conditions of data set [1]: MM patients; cited from earlier work.
Data set [2] relates to kidney, liver, lung, spleen, and heart. Nature of the data set: Western Blot of apoptotic marker caspase-3 in organs of LLC mice. Type of data set: in vivo, mouse. The conditions noted are these: after 36 days. The text has this: FIG. 14 is a Western Blot of the apoptopic marker […]-3 of cells in solid tumors with no treatment, XM alone, Carfilzomib alone, and Carfilzomib plus XM. After 36 days, the mice were sacrificed and organs collected for the Western Blot.

For data set [3], the system named is 5TGM1 cells. Nature of the data set: Cell viability assay (ViaLight Plus). Type of data set: cell-based, murine. Particulars: Carf 10 nM, Gal3M 10 ug/ml. As for the experimental part:
Cell viability assay. 5TGM1 cells were treated for 48 hours with carfilzomib, Gal3M or the combination of these two agents, then cell viability was assessed by the ViaLight Plus Cell Proliferation and Cytotoxicity BioAssay Kit (Lonza) according to the directions of the manufacturer.

Data set [4] deals with Raw264.7 cells co-cultured with 5TGM1 cells. Put plainly: 5TGM1-driven osteoclastogenesis in vitro (TRAP staining). The data set is classed as cell-based, murine. Particulars: co-culture with 5TGM1, 5 μM carfilzomib, 10 μM Gal3M, 7 days, vs control co-culture. On the procedure:
Osteoclast differentiation from RAW264.7 cells. For co-culture experiments Raw264.7 and 5TGM1 cells were seeded on a 6-well plate at a density of 1×10^4 cells/well (about 8×103 Raw264.7 and 2×103 […]) and cultured in presence/absence of carfilzomib, Gal3M or carfilzomib plus Gal3M. After 5-7 days cells were fixed on the culture plates with citrate-acetone solution and stained for TRAP (Sigma-Aldrich). Osteoclasts were identified and enumerated under light microscopy by the presence of ≧3 nuclei by using an Olympus microscope.

In data set [5] the test system is lung cancer (tumor). Nature of the data set: ELISA for AKAP-4 expression in tumor and lung tissue. Type of data set: in vivo, mice. The conditions noted are these: tumor and lung tissue lysates. The text has this:
The wells were coated with tumor and lung tissue lysates.

Data set [6] has as its system 5TGM1 cells. Put plainly: 5TGM1 syngeneic mice model of MM, serum IgG2b and SP17 ELISA. The data set is classed as in vivo, C57BL/KaLwRij mice. As for the experimental part:
(§1) Testing Gal3M and carfilzomib in 5TGM1 syngeneic mice model. 5TGM1 cells were washed once with PBS (Sigma-Aldrich) and counted. The suspension containing […] 5TGM1 cells was injected I.V. into 20 C57BL/KaLwRij mice, 5 non-injected mice were used as negative controls. Tumor engraftment was assessed by testing IgG2b in the sera once a week. After 14 days the injected mice were randomly divided into four groups (five mice/group). Control group #1 was injected with PBS-only, group #2 received a dose of Gal3M (100 μg/mouse), group #3 received a dose of carfilzomib (112 μg/mouse) and group #4 received a dose of carfilzomib (112 μg/mouse) plus Gal3M (100 ug/mouse). Treatment effect on tumor growth was assessed by testing IgG2b and SP17 levels in the sera. Anesthetized animals were euthanized after 28 days and a postmortem examination was conducted on the whole animals and dissected organs.
ELISA for Sp17 and IgG2b. The levels of SP17 and IgG2b in mice serum were measured by direct ELISA as follows. Flat-bottom 96-well polycarbonate plates were coated with 100 μL/well sera diluted 1:25 in carbonate coating buffer (0.1 M Na2CO3, 0.1 M NaHCO3, pH 9.5) at 4° C. overnight. Then, after blocking with PBS supplemented with 1% W/V BSA for 1 hour at RT, plates were incubated with mouse anti-mouse Sp17 or IgG2b primary antibodies (1:500 in PBS, 100 μL/well, Santa Cruz Biotechnology) for 1 hour at RT. Then, plates were washed thrice with PBS with 0.025% V/V Tween-20 (200 μL/well) and incubated at RT with anti-mouse HRP-labeled secondary antibodies (1:10,000 in PBS; Abcam, Cambridge, Mass., USA) for 1 hour. The plates were washed thrice with PBS containing 0.025% V/V Tween-20 (200 μL/well), the TMB colorimetric substrate (Thermo Fisher Scientific, Waltham, Mass., USA) was added, and after 5 minutes the absorbance was measured (0.1 s) at 450 nm on a Victor 2 multimodal microplate reader (PerkinElmer, Billerica, Mass., USA). All samples were run in triplicates.

Data set [7] has as its system 5TGM1 mice. Nature of the data set: IHC for osteocalcin and Cathepsin K on decalcified bones. The data set is classed as in vivo. As for the experimental part: Immunohistochemistry. Immunohistochemistry analysis of markers of osteoclasts (anti-Cathepsin K antibody, Abcam), osteoblasts (anti-osteocalcin antibody, Abcam) and apoptosis (anti-activated caspase-3 antibody, Cell Signaling Technologies) were carried out in paraffin-embedded sections. Hearts and kidneys from treated and control mice were fixed in formalin, dehydrated in ethanol, embedded in paraffin, and then cut in 3.5 μm-thick sections. For bone sections, following formalin-fixation, decalcification with 10% EDTA (pH=8), and de-hydration in ethanol, femurs were included in paraffin, then cut in 5 μm-thick sections. After deparaffinization in xylene and re-hydration (100%-95%-70%-50% ethanol scale), slides were placed 10′ in distilled water, then incubated 20′ at 98° C. in Sodium Citrate Buffer (10 mM Sodium Citrate, 0.05% Tween 20, pH 6.0). After blocking with PBS+5% V/V FBS (2 hours at room temperature), the anti Cathepsin K, steocalcin and active Caspase3 antibodies were added (diluted 1:400 in PBS+1% BSA) and allowed to incubate overnight at 4° C. Sections were rinsed twice in PBS+0.05% Tween-20, then endogenous peroxidase was blocked with 1% H2O2 in PBS for 15′. After rinsing three times with PBS+0.05% Tween-20 for 2′, slides were incubated with the secondary antibody (1:1000, Goat anti-Rabbit-HRP, Abcam) for 1 hour at RT. […]

Data set [8] deals with 5TGM1 cells. Nature of the data set: Invasion ability of 5TGM1 cells. The conditions noted are these: Carf 10 nM, Gal3M 10 ug/ml. The data set is classed as cell-based, murine.
In data set [9] the test system is 5TGM1 cells. Put plainly: Chemotaxis assay (Transwell). The data set is classed as cell-based, murine. On the procedure: Chemotaxis assay. 5TGM1 cells (4×10^5/well) were plated in 100 μL serum-free medium in the top chambers of 24-well Transwell™ inserts (Corning Costar, N.Y., USA) with 8-μm. Complete cell culture medium (600 μL) containing 10% FBS was added to the bottom chamber. Cells were treated for 4 hours with Gal3M (10 μg/ml), carfilzomib (10 nM) or carfilzomib plus Gal3M (same doses), and 5TGM1 cells in the lower chamber were fixed and counted.

The subject of data set [10] is 5TGM1 mice. Put plainly: Bone mass density analysis on x-ray images of 5TGM1 mice. Type of data set: in vivo. Particulars: compared with tumor-bearing untreated mice. On the procedure: as §1
Bone mass density analysis. X-ray images were taken at the euthanasia day using IVIS Lumina Series III Pre-clinical In Vivo Imaging System (Perkin Elmer, USA) and bone mass density analysis (BMD) were performed as previously described (McManus M M, 2011).

In data set [11] the test system is kidney and heart. Put plainly: Kidney and heart toxicity in 5TGM1 mice (hematoxylin/eosin, activated caspase-3 IHC). Particulars: mouse, in vivo.
Experimental: 5TGM1 cells were washed once with PBS (Sigma-Aldrich) and counted. […] Tumor engraftment was assessed by testing IgG2b in the sera once a week. After 14 days the injected mice were randomly divided into four groups (five mice/group). […] Treatment effect on tumor growth was assessed by testing IgG2b and SP17 levels in the sera. Anesthetized animals were euthanized after 28 days and a postmortem examination was conducted on the whole animals and dissected organs.
Immunohistochemistry analysis of markers of osteoclasts (anti-Cathepsin K antibody, Abcam), osteoblasts (anti-osteocalcin antibody, Abcam) and apoptosis (anti-activated caspase-3 antibody, Cell Signaling Technologies) were carried out in paraffin-embedded sections. Hearts and kidneys from treated and control mice were fixed in formalin, dehydrated in ethanol, embedded in paraffin, and then cut in 3.5 μm-thick sections. For bone sections, following formalin-fixation, decalcification with 10% EDTA (pH=8), and de-hydration in ethanol, femurs were included in paraffin, then cut in 5 μm-thick sections. […] Sections were rinsed twice in PBS+0.05% Tween-20, then endogenous peroxidase was blocked with 1% H2O2 in PBS for 15′. After rinsing three times with PBS+0.05% Tween-20 for 2′, slides were incubated with the secondary antibody (1:1000, Goat anti-Rabbit-HRP, Abcam) for 1 hour at RT. […]
Data set [12] concerns LLC. Put plainly: Murine lung cancer (LLC) study, measurement of tumor size. Type of data set: in vivo. Particulars: LLC mice, treatment from 14 days after injection, Carfilzomib 112 ug and 224 ug. As for the experimental part:
Measurement of tumor size. 14 days after injection of LLC, the mice were treated with XM and Carfilzomib (112 ug and 224 ug) for two (2) consecutive days three (3) times weekly.

The structures appear in SMILES notation.

Turning to `CC(C)C[C@H](NC(=O)[C@H](CCc1ccccc1)NC(=O)CN1CCOCC1)C(=O)N[C@@H](Cc1ccccc1)C(=O)N[C@@H](CC(C)C)C(=O)[C@@]1(C)CO1` [Carfilzomib], in data set [1], the “treated patients discontinuing therapy because of renal and cardiac side effects” value is recorded as “approximately 15%”. The “apoptosis (caspase-3 Western Blot) in mouse organs” value in data set [2] is “increased apoptosis”. Moreover, in [3], the “growth of 5TGM1 (in words)” value is reported as “significantly inhibited”. In addition, the “decrease in formation of TRAP+/multinucleated Raw264.7 cells” value in [4] is recorded as 55%. Moreover, the “effect on lung cancer (AKAP-4 ELISA)” value in data set [5] was “have an effect on lung cancer (tumor)”. Besides, the “decrease in IgG2b levels” value in data set [6] (day 21, treated on day 14, compared to untreated MM bearing mice) is 14%. For the same compound, the “decrease in SP17 serum levels” value in data set [6] (day 28, compared to untreated mice) was found to be 37%. The “decrease in IgG2b levels” value in data set [6] (day 28, treated on day 14, compared to untreated MM bearing mice) is given as 36%. In data set [7], the “Cathepsin K-positive cells (osteoclasts marker)” value is recorded as “decrease” and the “osteocalcin-positive cells (osteoblasts marker)” value was “increase”. Moreover, the “invasion ability of 5TGM1 (in words)” value in data set [8] is given as “significantly inhibited”. Further, the “chemotaxis of 5TGM1 (in words)” value in data set [9] (Carf 10 nM, Gal3M 10 ug/ml) is “significantly inhibited”. The inhibition at 0.01 µM in [9] (Mus musculus, 5TGM1 cells, 4 hours, Gal3M 10 μg/ml, carfilzomib 10 nM, read-out: inhibition of the ability of 5TGM1 cells to migrate in response to chemotactic stimuli) is 40%. In addition, the “BMD increase ROI2” value in [10] (distal femur end) came out at 19%. The “BMD increase ROI1” value in data set [10] (proximal femur end) was found to be 28%. Besides, the “BMD increase ROI3” value in [10] (tibia) was determined as 12%. The “histological analysis of kidney and heart: morphology and activated caspase-3” value in data set [11] (C57BL/KaLwRij, 28 days) was “associated with changes in cellular architecture and caspase-3 activation”. For the same compound, in data set [11], the kidney toxicity result was “kidney toxicity both at minimum and maximum dose”. Besides, in data set [12], the “tumor growth (tumor size)” value is reported as “inhibited tumor growth”.

The record behind these values is patent US20160122407A1, “Galectin-3 Inhibitor (Gal-3M) is Associated with Additive Anti-Myeloma and Anti-Solid Tumor Effects, Decreased Osteoclastogenesis and Organ Protection when Used in Combination with Proteasome Inhibitors” (Texas Tech University System, priority 2014, published 2016).
